Key:
[1] = Production of H2O2 in the presence of ascorbate (colorimetric); assay type: biochemical; settings: ascorbate plus GdTex, over the time interval of 75 to 200 minutes
Description: In this example, the following stock solutions were prepared: • Stock ascorbic acid (Sigma A 5960) (prepared fresh): 9.98 mg/(10 mL×176.12 mg/mmol)=5.67 mM • Stock GdTex: 5.76 mg/(10.0 mL water×1148 mg/mmol)=502 μM • Stock 4× Buffer: 200 mM HEPES, pH 7.5; 400 mM NaCl These were combined to form the reaction mixture: 200 μL 4× Buffer, 39 μL ascorbic acid Stock, 517.3 μL Water, 43.7 μL GdTex Stock. The reaction mixture was analyzed for hydrogen peroxide as indicated above. As a control, a solution in which complex was not added was prepared as above, with suitable adjustment of the volume of water, and analyzed concurrently.
Measurements of the absorbance at 560 nm (with appropriate subtraction of the background absorbance of the reagent at this wavelength) were made of samples taken at the various timepoints. It was noted that the control solution gave a uniform background absorbance which was similar at all time points, whereas the mixture containing GdTex gave an increasing amount of absorbance over time. (Sugars are known to produce high background absorbance in this assay, see manufacturers insert for details.)

[2] = test system: MES-SA human uterine cells; assay: Proliferation of MES-SA cells with BSO and GdTex (MTT); assay type: cell-based
Description: The proliferation of MES-SA human uterine cells grown in McCoys 5A medium in the presence of a thiol depleting agent (BSO) or GdTex was used to assess the combined effect of these agents. The protocol outlined in the previous example was followed, with the following changes:
1. The serially diluted compound was 200 μM BSO (Sigma Chemical, St. Louis, Mo., catalogue no. G1404).
2. The cells were allowed to incubate in the presence of the two drugs for ca. 72 hours, prior to exchange of media and analysis using the colorimetric (MTT) assay, as described, e.g., in Example 5.

[3] = test system: MES-SA human uterine cells; assay: Proliferation of BSO-treated MES-SA cells with Antimycins A and GdTex (MTT); assay type: cell-based; settings: BSO pre-treated cells, Antimycins A 0 to 20 μM, GdTex up to 100 μM, 20 h
Description: The proliferation of MES-SA human uterine cells grown in McCoys SA medium in the presence of the thiol depleting agent BSO, with varying concentrations of a mitochondrial inhibitor (Antimycins A) and GdTex was used to assess the combined effect of these agents.
Materials and Methods. MES-SA cells were incubated at 37° C. and allowed to adhere to 96-well microtiter plates (2000 cells per well) overnight in 180 μL McCoys 5A containing 10% FBS (Gibco-BRL) and ca. 2% penicillin/streptomycin solution (Sigma). BSO (20 μL) was added to all wells followed by incubation for a further 24 h. The medium was exchanged and Antimycins A was serially diluted at concentrations ranging from 0 to 20 μM and after 0.5 hr metallotexaphyrin complex (up to 100 μM) was added to the test wells to give a final volume of 200 μL, followed by incubation for 20 h, whereupon the medium was exchanged and the plates were incubated an additional 52 h prior to analysis for viability using the MTT assay.

CC(=O)[O-].CC(=O)[O-].CCc1c(CC)c2cc3nc(cnc4cc(OCCOCCOCCOC)c(OCCOCCOCCOC)cc4ncc4nc(cc1[n-]2)C(CCCO)=C4C)C(C)=C3CCCO.O.[Gd+3] [GdTex, motexafin gadolinium]
H2O2 produced [1]: approximately 35 μM
inhibitory effect of GdTex alone ([2]; absence of BSO, ca. 72 hours, McCoys 5A medium): ca. 50%
combined effect of GdTex and BSO on cell growth ([2]; increasing amounts of GdTex with BSO, data normalized for GdTex alone): increase in the cytotoxic dose response of the cells towards BSO
combined effect of GdTex and Antimycins A on cell growth [3]: increase in the cytotoxic dose response of the cells towards Antimycins A

Reference: patent US7579338B2, “Methods and compositions for treating atheroma, tumors and other neoplastic tissues” (Pharmacyclics, Inc., priority 1999, dated 2009)
